In series [1] the test system is human osteosarcoma cells (MG-63). Briefly: Assessment of cytotoxicity by SRB assay (MG-63). The format is cell-based. Particulars: 0.01 μM to 100 μM, 72 h. The procedure: (§1) The human prostate cancer cells (PC3) and human osteosarcoma cells (MG-63) were obtained from Nawah Scientific Inc. (Mokatam, Cairo, Egypt) and cultured in DMEM (Dulbecco's modified eagle's medium), Gibco, USA, supplemented with fetal bovine serum (FBS) at a concentration of 10% and 100 U/mL of penicillin and streptomycin (PS). The Cells were incubated at 37° C. in a humidified environment that contained 5% C02.
(§2) Cells were seeded in 96-well plates as aliquots of 100 μL cell suspension and incubated in a complete media for 24 h. Afterward, cells were treated with 2-(1-(2-hydroxypropyl)-4,5-diphenyl-1H-imidazol-2-yl)pyridine at diverse concentrations ranging from 0.01 μM to 100 μM for 72 h. Then, cells were fixed at 4° C. for one hour with 150 μL of 10% trichloroacetic acid (TCA). After washing the cells five times with distilled water, 70 μL of sulforhodamine (SRB) solution (0.4% w/v) was added and incubated for 10 min at room temperature in a dark place. […] Then, 150 μL of Tris pH 10.5 (10 mM) was added, and the absorbance was measured at 540 nm using a BMG LABTECH®-FLUOstar Omega microplate reader (Ortenberg, Germany). Half maximal inhibitory concentrations (IC50) values were calculated for each experiment using GraphPad Prism 6 software. […]
(§3) The inhibition was calculated using the following equation: Inhibition %=100−Average Viability

Series [2] relates to human prostate cancer cells (PC3). Briefly: Assessment of cytotoxicity by SRB assay (PC3). The series is classed as cell-based. Particulars: 0.01 μM to 100 μM, 72 h. The procedure:
as §1, §2, §3
For orientation: In SRB staining, fixed cells bind dye roughly in proportion to their protein.

Each structure is given as a SMILES string.

As usually defined, the melting point is the temperature, or range, at which the solid turns liquid. `CC(O)Cn1c(-c2ccccn2)nc(-c2ccccc2)c1-c1ccccc1` (stereo not drawn) [2-(1-(2-hydroxypropyl)-4,5-diphenyl-1H-imidazol-2-yl)pyridine] registered a melting point of 112 to 114 °C. The “antiproliferative activity against osteosarcoma (MG-63) cells” value in series [1] is “excellent antiproliferative activities”. The “antiproliferative activity against prostate cancer cells (PC3)” value in series [2] is on record as “excellent antiproliferative activities”.

Source of the values: patent US11932622B1, “2-(1-(2-hydroxypropyl)-4,5-diphenyl-1H-imidazol-2-yl)pyridine as an anticancer compound” (KING FAISAL UNIVERSITY, priority 2023, dated 2024).
